pEC50: −log10 of the molar value.
Experiments:
HCV = settings: literature references; cited from earlier work
HCV 1b genotype = assay: HCV Replicon assay (HCV 1b genotype); type: cell-based, Hepatitis C virus; settings: Hepatitis C virus; HCV 1b genotype replicon; class symbol; read-out: Range (EC50 values against HCV 1b)
Procedure, shortened: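 HCV-neo replicon cells, wild-type plus lines carrying NS5A-region mutations, were exposed to compound; luciferase-reporter replicon variants were also used.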

| Molecule | activity against HCV in clinical trials (HCV) | pEC50 (HCV 1b genotype) |
| --- | --- | --- |
| cyclosporin A | active against HCV |  |
| COC(=O)N[C@H](C(=O)N1[C@@H](C)CC[C@H]1c1ncc(-c2ccc(C#Cc3ccc(-c4cnc([C@@H]5CC[C@H](C)N5C(=O)[C@@H](NC(=O)OC)C(C)C)[nH]4)cc3)cc2)[nH]1)C(C)C [Example M10, methyl ((1S)-1-(((2S,5S)-2-(4-(4-((4-(2-((2S,5S)-1-((2S)-2-((methoxycarbonyl)amino)-3-methylbutanoyl)-5-methyl-2-pyrrolidinyl)-1H-imidazol-4-yl)phenyl)ethynyl)phenyl)-1H-imidazol-2-yl)-5-methyl-1-pyrrolidinyl)carbonyl)-2-methylpropyl)carbamate] |  | 10.00 to 11.70 |

— US8796466B2, “Hepatitis C virus inhibitors” (Bristol-Myers Squibb Company, priority 2009, dated 2014)
